The target in experiment [1] is T1, human TTK (Homo sapiens, UniProt P33981).
T1 construct: amino terminal GST fusion of full length human TTK; purchased Invitrogen
T1 sequence (P33981 1-857): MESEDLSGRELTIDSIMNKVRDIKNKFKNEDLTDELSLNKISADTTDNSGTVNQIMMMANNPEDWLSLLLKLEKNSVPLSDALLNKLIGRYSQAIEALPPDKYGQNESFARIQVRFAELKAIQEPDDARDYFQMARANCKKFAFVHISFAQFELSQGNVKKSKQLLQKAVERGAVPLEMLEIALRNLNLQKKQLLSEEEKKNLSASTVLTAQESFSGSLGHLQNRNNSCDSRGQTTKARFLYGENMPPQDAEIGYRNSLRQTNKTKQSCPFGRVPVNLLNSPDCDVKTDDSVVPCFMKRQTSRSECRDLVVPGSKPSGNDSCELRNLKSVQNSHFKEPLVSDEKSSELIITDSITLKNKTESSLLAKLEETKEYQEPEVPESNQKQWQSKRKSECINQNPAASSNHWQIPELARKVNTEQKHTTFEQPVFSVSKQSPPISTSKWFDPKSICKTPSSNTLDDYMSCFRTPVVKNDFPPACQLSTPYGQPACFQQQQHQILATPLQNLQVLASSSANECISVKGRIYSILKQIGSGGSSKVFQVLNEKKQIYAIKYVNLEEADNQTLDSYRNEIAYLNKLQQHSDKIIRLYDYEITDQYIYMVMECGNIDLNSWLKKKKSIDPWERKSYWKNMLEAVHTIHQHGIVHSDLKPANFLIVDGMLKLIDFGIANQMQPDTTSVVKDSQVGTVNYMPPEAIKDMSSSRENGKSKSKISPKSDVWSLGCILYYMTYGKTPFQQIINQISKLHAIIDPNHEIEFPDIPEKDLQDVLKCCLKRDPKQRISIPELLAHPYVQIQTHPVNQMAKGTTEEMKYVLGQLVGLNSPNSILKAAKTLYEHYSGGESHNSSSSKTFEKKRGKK
As to the kind of experiment: TTK inhibition assay (indirect ELISA). It is filed as biochemical. As to conditions: GST-TTK 0.68 nM, 16 μM ATP; read-out: IC50 Ranges TTK. A general note: An ELISA detects its analyte on a solid surface through an enzyme-linked reagent.

The target in experiment [2] is T2, human PLK4 (Homo sapiens, UniProt O00444).
T2 construct: amino terminal GST fusion of residues 1-391 of human PLK4; made in house; host or cells: E. coli
T2 sequence (O00444 1-391): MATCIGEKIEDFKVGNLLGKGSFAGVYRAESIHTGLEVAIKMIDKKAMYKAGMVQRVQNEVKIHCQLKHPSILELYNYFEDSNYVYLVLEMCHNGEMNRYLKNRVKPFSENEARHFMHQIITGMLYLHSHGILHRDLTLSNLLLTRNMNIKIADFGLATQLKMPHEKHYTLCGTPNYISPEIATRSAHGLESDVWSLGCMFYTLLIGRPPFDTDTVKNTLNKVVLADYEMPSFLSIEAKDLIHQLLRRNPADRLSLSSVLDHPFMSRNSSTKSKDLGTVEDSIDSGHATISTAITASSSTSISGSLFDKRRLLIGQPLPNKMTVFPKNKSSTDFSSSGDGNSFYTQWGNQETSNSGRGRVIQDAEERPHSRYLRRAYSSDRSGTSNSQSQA
The experiment in a line: PLK4 inhibition assay (indirect ELISA). The format is biochemical. The conditions noted are these: GST-PLK4 4 nM, 15 μM ATP; read-out: IC50 Ranges PLK4. An outline of the steps: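 Compounds were tested either at a single 10 μM dose or across 10-point titrations (typically 0.5 to 0.001 μM), preincubated 15 min with 4 nM GST-PLK4 (human 1-391, dephosphorylated) before 15 μM ATP was added. MBP substrate phosphorylation over 30 min, pH 7.5 HEPES/MgCl2 buffer, read by HRP/TMB ELISA (450 nm). % inhibition vs. high-activity control; IC50 by logistic fit.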

For experiment [3], the system named is MDA-MB-231 breast cancer cells. As to the kind of experiment: Cell growth inhibition, Sulforhodamine B assay, MDA-MB-231. As to conditions: Homo sapiens, 120 h, 5 days culture, SRB assay, read-out: Cell Line GI50 Range MDA-MB-231. The format is cell-based.
For experiment [4], the system named is MDA-MB-468 breast cancer cells. The experiment in a line: Cell growth inhibition, Sulforhodamine B assay, MDA-MB-468. It is filed as cell-based. The conditions noted are these: Homo sapiens, 120 h, 5 days culture, SRB assay, read-out: Cell Line GI50 Range MDA-MB-468. A general note: The SRB assay estimates cell density from bound dye.
Experiment [5] relates to HCT116 colon cancer cells. As to the kind of experiment: Cell growth inhibition, Sulforhodamine B assay, HCT116. As to conditions: Homo sapiens, HCT-116, 120 h, 5 days culture, SRB assay, read-out: Cell Line GI50 Range HCT116. The format is cell-based.
In experiment [6] the test system is HT29 colon cancer cells. The experiment in a line: Cell growth inhibition, Sulforhodamine B assay, HT29. It is filed as cell-based. As to conditions: Homo sapiens, HT-29, 120 h, 5 days culture, SRB assay, read-out: Cell Line GI50 Range HT29.
For experiment [7], the system named is PA-1 ovarian cancer cells. The experiment in a line: Cell growth inhibition, Sulforhodamine B assay, PA-1. It is filed as cell-based. The conditions noted are these: 120 h, 5 days culture, SRB assay, read-out: Cell Line GI50 Range PA-1.
Experiment [8] concerns OVCAR-3 ovarian cancer cells. As to the kind of experiment: Cell growth inhibition, Sulforhodamine B assay, OVCAR-3. It is filed as cell-based. The conditions noted are these: Homo sapiens, 120 h, 5 days culture, SRB assay, read-out: Cell Line GI50 Range OVCAR-3.
Experiment [9] has as its target T3, Aurora B (Homo sapiens, UniProt Q96GD4).
T3 construct: purchased Invitrogen PV3970
The experiment in a line: Aurora B inhibition assay (Z-Lyte). The format is biochemical. As to conditions: 28 nM Aurora B, 128 μM ATP; read-out: IC50 Ranges Aurora B. As to the method:
Aurora B inhibition was determined using the Z-Lyte assay kit from Invitrogen. The assay was performed using the recommended manufacturer's instructions with 128 μM ATP and 28 nM Aurora B (Invitrogen cat #PV3970). The % inhibition values were determined according to the manufacturer's directions and IC50 values were obtained using a non-linear 4 point logistic curve fit (XLfit4, IDBS)

Where only a bound is given, the exact number is not on record here.

T3 sequence (Q96GD4 whole entry): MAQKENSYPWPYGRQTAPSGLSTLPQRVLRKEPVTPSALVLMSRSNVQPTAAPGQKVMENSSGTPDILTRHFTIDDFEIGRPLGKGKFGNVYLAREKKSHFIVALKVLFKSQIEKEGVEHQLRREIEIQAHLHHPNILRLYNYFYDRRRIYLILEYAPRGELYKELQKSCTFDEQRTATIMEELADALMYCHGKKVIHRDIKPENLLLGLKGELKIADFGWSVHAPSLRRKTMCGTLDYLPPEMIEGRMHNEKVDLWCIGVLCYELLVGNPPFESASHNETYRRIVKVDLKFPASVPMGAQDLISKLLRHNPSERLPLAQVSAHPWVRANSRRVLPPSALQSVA

Regarding `CN1CCC(Oc2ccc(-c3n[nH]c4ccc(NC(=O)C(c5ccccc5F)C5CCCC5)cc34)cc2)CC1` (stereo not drawn) [Example A162, 2-cyclopentyl-2-(2-fluorophenyl)-N-(3-(4-((1-methylpiperidin-4-yl)oxy)phenyl)-1H-indazol-5-yl)acetamide], the IC50 in experiment [1] and in experiment [2] was no more than 5 µM in each case. The GI50 in experiment [3], in experiment [4], in experiment [5], in experiment [6], in [7] and in experiment [8] was no more than 5 µM in each case.

Consider `CN1CCC(Oc2ccc(-c3n[nH]c4ccc(C(=O)NC(c5ccccc5Cl)C5CCCC5)cc34)cc2)CC1` (stereo not drawn) [Example A199, N-((2-chlorophenyl)(cyclopentyl)methyl)-3-(4-((1-methylpiperidin-4-yl)oxy)phenyl)-1H-indazole-5-carboxamide], for which the IC50 in experiment [1], in experiment [2] and in experiment [9] was no more than 5 µM each time. For the same compound, the GI50 in experiment [3], in [4], in experiment [5], in experiment [7] and in [8] was no more than 5 µM in each case.

With `CC[C@@H](NC(=O)c1ccc2[nH]nc(-c3ccc(OC4CCN(C5COC5)CC4)cc3)c2c1)c1ccccc1Cl` [Example A192, (R)—N-(1-(2-chlorophenyl)propyl)-3-(4-((1-(oxetan-3-yl)piperidin-4-yl)oxy)phenyl)-1H-indazole-5-carboxamide], the IC50 in experiment [1], in experiment [2] and in [9] was no more than 5 µM throughout. In addition, the GI50 in [4], in [5], in experiment [7] and in experiment [8] was no more than 5 µM throughout.

On to `CN1CCC(Oc2ccc(-c3n[nH]c4ccc(C(=O)NC(c5ccsc5)C5CCC5)cc34)cc2)CC1` (stereo not drawn) [Example A121], for which the IC50 in [1], in experiment [2] and in [9] was no more than 5 µM each time. Also, the GI50 in experiment [4], in experiment [5], in experiment [6], in experiment [7] and in [8] was no more than 5 µM throughout.

In the case of `COc1cc(-c2n[nH]c3ccc(C(=O)NC(c4ccccc4)C4CC4)cc23)ccc1OC1CCN(C2COC2)CC1` (stereo not drawn) [Example A194, N-(cyclopropyl(phenyl)methyl)-3-(3-methoxy-4-((1-(oxetan-3-yl)piperidin-4-yl)oxy)phenyl)-1H-indazole-5-carboxamide], the IC50 in experiment [1], in experiment [2] and in [9] was no more than 5 µM each time. The GI50 in experiment [3], in [4], in [5], in experiment [7] and in [8] was no more than 5 µM each time.

In the case of `O=C(Nc1ccc2[nH]nc(-c3ccc(OC4CCN(CCF)CC4)cc3)c2c1)C(c1ccsc1)N1CCCC1` (stereo not drawn) [Example A102, N-(3-(4-((1-(2-fluoroethyl)piperidin-4-yl)oxy)phenyl)-1H-indazol-5-yl)-2-(pyrrolidin-1-yl)-2-(thiophen-3-yl)acetamide], the IC50 in [1], in experiment [2] and in experiment [9] was no more than 5 µM throughout. Further, the GI50 (commonly the concentration that inhibits growth by half) was no more than 5 µM in [4]; no more than 5 µM in experiment [5]; no more than 5 µM in experiment [6]; no more than 5 µM in experiment [7]; 5 to 20 µM in experiment [8].

Consider `CN1CCC(Oc2ccc(-c3n[nH]c4ccc(C(=O)N[C@H](CCO)c5ccccc5)cc34)cc2Cl)CC1` [Example A202, (R)-3-(3-chloro-4-((1-methylpiperidin-4-yl)oxy)phenyl)-N-(3-hydroxy-1-phenylpropyl)-1H-indazole-5-carboxamide], for which the IC50 in experiment [1], in [2] and in experiment [9] was no more than 5 µM throughout. In addition, the GI50 in experiment [3], in [4], in [5], in experiment [7] and in experiment [8] was no more than 5 µM throughout.

As for `CN1CCC(Oc2ccc(-c3n[nH]c4ccc(C(=O)NC(c5ccccn5)C5CC5)cc34)cc2Cl)CC1` (stereo not drawn) [Example A198, 3-(3-chloro-4-((1-methylpiperidin-4-yl)oxy)phenyl)-N-(cyclopropyl(pyridin-2-yl)methyl)-1H-indazole-5-carboxamide], the IC50 in experiment [1], in experiment [2] and in experiment [9] was no more than 5 µM each time. The GI50 in experiment [3], in experiment [4], in experiment [5], in experiment [7] and in experiment [8] was no more than 5 µM in each case.

Turning to `O=C(Nc1ccc2[nH]nc(-c3ccc(N4CCC(O)CC4)cc3)c2c1)C(c1ccccc1)C1CC1` (stereo not drawn) [Example A103, 2-cyclopropyl-N-(3-(4-(4-hydroxypiperidin-1-yl)phenyl)-1H-indazol-5-yl)-2-phenylacetamide], the concentration for half-maximal inhibition (IC50) in experiment [1], in experiment [2] and in experiment [9] was no more than 5 µM throughout. Moreover, the GI50 in experiment [3], in experiment [4], in experiment [5], in [6] and in experiment [7] was no more than 5 µM each time.

As for `CN1CCC(C(NC(=O)c2ccc3[nH]nc(-c4ccc(N5CCOCC5)cc4)c3c2)c2ccccc2)CC1` (stereo not drawn) [Example A85, N-((1-methylpiperidin-4-yl)(phenyl)methyl)-3-(4-morpholinophenyl)-1H-indazole-5-carboxamide], the IC50 in experiment [1], in experiment [2] and in experiment [9] was no more than 5 µM throughout. Further, the GI50 in experiment [3], in [4], in experiment [5], in [6] and in experiment [7] was no more than 5 µM in each case.

In the case of `COc1ccc(NC(=O)Nc2ccc3[nH]nc(-c4ccc(OC5CCN(C)CC5)cc4)c3c2)c(C)c1` [Example A81, 1-(4-methoxy-2-methylphenyl)-3-(3-(4-((1-methylpiperidin-4-yl)oxy)phenyl)-1H-indazol-5-yl)urea], the IC50 in experiment [1], in [2] and in experiment [9] was no more than 5 µM in each case. Also, the GI50 is 5 to 20 µM in experiment [3]; no more than 5 µM in [4]; no more than 5 µM in experiment [5]; no more than 5 µM in experiment [6]; no more than 5 µM in [7].

The values above are taken from patent US20140051679A1, “KINASE INHIBITORS AND METHOD OF TREATING CANCER WITH SAME” (UNIVERISTY HEALTH NETWORKS, priority 2011, published 2014).
